pIC50: −log10 of the molar value.
System: 435261-313-R-J1-PDC tumor spheroid viability
Assay: Anticancer human tumor 435261-313-R-J1-PDC patient-derived colon adenocarcinoma cell line growth inhibition [PI3K]
Conditions: spheroids with HUVEC and MSC; for pIC50: curve of first compound; for viability, T/C: stronger effect = lower value
How it was run: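 Agents were dosed from a top concentration near clinical Cmax (otherwise 10 microM) in half-log decrements, alone or combined with PI3K inhibitors. The spheroids contain tumor cells plus endothelial (HUVEC) and MSC stroma; viability is measured.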

[1] = second compound 0.0316 µM, first compound 0.0316 µM
[2] = second compound 0.0316 µM, first compound 0.1 µM
[3] = second compound 0.0316 µM, first compound 0.316 µM
[4] = second compound 0.0316 µM, first compound 1 µM
[5] = second compound 0.0316 µM, first compound 3.16 µM
[6] = second compound 0.0316 µM, first compound 10 µM
[7] = second compound 0.1 µM, first compound 0.0316 µM
[8] = second compound 0.1 µM, first compound 0.1 µM
[9] = second compound 0.1 µM, first compound 0.316 µM
[10] = second compound 0.1 µM, first compound 1 µM
[11] = second compound 0.1 µM, first compound 3.16 µM
[12] = second compound 0.1 µM, first compound 10 µM
[13] = second compound 0.316 µM, first compound 0.0316 µM
[14] = second compound 0.316 µM, first compound 0.1 µM
[15] = second compound 0.316 µM, first compound 0.316 µM
[16] = second compound 0.316 µM, first compound 1 µM
[17] = second compound 0.316 µM, first compound 3.16 µM
[18] = second compound 0.316 µM, first compound 10 µM
[19] = second compound 1 µM, first compound 0.0316 µM
[20] = second compound 1 µM, first compound 0.1 µM
[21] = second compound 1 µM, first compound 0.316 µM
[22] = second compound 1 µM, first compound 1 µM
[23] = second compound 1 µM, first compound 3.16 µM
[24] = second compound 1 µM, first compound 10 µM
[25] = second compound 3.16 µM, first compound 0.0316 µM
[26] = second compound 3.16 µM, first compound 0.1 µM
[27] = second compound 3.16 µM, first compound 0.316 µM
[28] = second compound 3.16 µM, first compound 1 µM
[29] = second compound 3.16 µM, first compound 3.16 µM
[30] = second compound 3.16 µM, first compound 10 µM
[31] = second compound 10 µM, first compound 0.0316 µM
[32] = second compound 10 µM, first compound 0.1 µM
[33] = second compound 10 µM, first compound 0.316 µM
[34] = second compound 10 µM, first compound 1 µM
[35] = second compound 10 µM, first compound 3.16 µM
[36] = second compound 10 µM, first compound 10 µM
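Further: spheroids exposed to compounds for 7 days.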

Q: With `CC1(C)CCC(CN2CCN(c3ccc(C(=O)NS(=O)(=O)c4ccc(NCC5CCOCC5)c([N+](=O)[O-])c4)c(Oc4cnc5[nH]ccc5c4)c3)CC2)=C(c2ccc(Cl)cc2)C1` + Cc1nc(NC(=O)N2CCCC2C(N)=O)sc1-c1ccnc(C(C)(C)C(F)(F)F)c1 as the molecule, how does the pIC50 (second compound 0.0316 µM) read?
A: 5.30

Q: What about the pIC50 (second compound 0.1 µM) of the same molecule?
A: 5.31

Q: And the pIC50 (second compound 0.316 µM)?
A: 5.45

Q: And the pIC50 (second compound 1 µM)?
A: > 7.50

Q: What about the pIC50 (second compound 3.16 µM) of the same molecule?
A: > 7.50

Q: And the pIC50 (second compound 10 µM)?
A: > 7.50

Q: What about the viability, T/C [1] of the same molecule?
A: 50.2%

Q: What about the viability, T/C [2] of the same molecule?
A: 81.4%

Q: And the viability, T/C [3]?
A: 78.5%

Q: What about the viability, T/C [4] of the same molecule?
A: 83%

Q: What about the viability, T/C [5] of the same molecule?
A: 95.5%

Q: What about the viability, T/C [6] of the same molecule?
A: 8.94%

Q: And the viability, T/C [7]?
A: 51.2%

Q: And the viability, T/C [8]?
A: 74.1%

Q: What about the viability, T/C [9] of the same molecule?
A: 93.8%

Q: What about the viability, T/C [10] of the same molecule?
A: 69.1%

Q: What about the viability, T/C [11] of the same molecule?
A: 90.8%

Q: What about the viability, T/C [12] of the same molecule?
A: 8.73%

Q: What about the viability, T/C [13] of the same molecule?
A: 50.5%

Q: What about the viability, T/C [14] of the same molecule?
A: 57.7%

Q: And the viability, T/C [15]?
A: 44%

Q: And the viability, T/C [16]?
A: 61.1%

Q: And the viability, T/C [17]?
A: 58.6%

Q: What about the viability, T/C [18] of the same molecule?
A: 9.2%

Q: And the viability, T/C [19]?
A: 26.7%

Q: What about the viability, T/C [20] of the same molecule?
A: 24.3%

Q: And the viability, T/C [21]?
A: 27.9%

Q: And the viability, T/C [22]?
A: 25.4%

Q: What about the viability, T/C [23] of the same molecule?
A: 22.6%

Q: What about the viability, T/C [24] of the same molecule?
A: 4.29%

Q: And the viability, T/C [25]?
A: 16.6%

Q: What about the viability, T/C [26] of the same molecule?
A: 16.1%

Q: And the viability, T/C [27]?
A: 13.4%

Q: And the viability, T/C [28]?
A: 18.5%

Q: And the viability, T/C [29]?
A: 18.1%

Q: And the viability, T/C [30]?
A: 4.62%

Q: What about the viability, T/C [31] of the same molecule?
A: 9.42%

Q: And the viability, T/C [32]?
A: 8.27%

Q: And the viability, T/C [33]?
A: 7.16%

Q: And the viability, T/C [34]?
A: 8.26%

Q: And the viability, T/C [35]?
A: 8.41%

Q: And the viability, T/C [36]?
A: 2.21%

Q: How did the pIC50 (second compound 0.0316 µM) turn out when `CCCS(=O)(=O)Nc1ccc(F)c(C(=O)c2c[nH]c3ncc(-c4ccc(Cl)cc4)cc23)c1F` + Cc1nc(NC(=O)N2CCCC2C(N)=O)sc1-c1ccnc(C(C)(C)C(F)(F)F)c1 was run?
A: 5.29

Q: And the pIC50 (second compound 0.1 µM)?
A: 5.31

Q: What about the pIC50 (second compound 0.316 µM) of the same molecule?
A: 5.36

Q: What about the pIC50 (second compound 1 µM) of the same molecule?
A: 7.50

Q: And the pIC50 (second compound 3.16 µM)?
A: > 7.50

Q: And the pIC50 (second compound 10 µM)?
A: > 7.50

Q: And the viability, T/C [1]?
A: 68.7%

Q: And the viability, T/C [2]?
A: 117%

Q: And the viability, T/C [3]?
A: 121%

Q: And the viability, T/C [4]?
A: 107%

Q: And the viability, T/C [5]?
A: 83%

Q: And the viability, T/C [6]?
A: 5.07%

Q: And the viability, T/C [7]?
A: 78.3%

Q: What about the viability, T/C [8] of the same molecule?
A: 95.7%

Q: What about the viability, T/C [9] of the same molecule?
A: 104%

Q: And the viability, T/C [10]?
A: 83.9%

Q: What about the viability, T/C [11] of the same molecule?
A: 77%

Q: What about the viability, T/C [12] of the same molecule?
A: 6.18%

Q: What about the viability, T/C [13] of the same molecule?
A: 57.6%

Q: What about the viability, T/C [14] of the same molecule?
A: 78%

Q: What about the viability, T/C [15] of the same molecule?
A: 70.4%

Q: And the viability, T/C [16]?
A: 64.5%

Q: And the viability, T/C [17]?
A: 67.8%

Q: And the viability, T/C [18]?
A: 4.86%

Q: What about the viability, T/C [19] of the same molecule?
A: 25.2%

Q: What about the viability, T/C [20] of the same molecule?
A: 37.8%

Q: What about the viability, T/C [21] of the same molecule?
A: 73.2%

Q: And the viability, T/C [22]?
A: 59.3%

Q: What about the viability, T/C [23] of the same molecule?
A: 38.3%

Q: What about the viability, T/C [24] of the same molecule?
A: 4.97%

Q: And the viability, T/C [25]?
A: 17.6%

Q: And the viability, T/C [26]?
A: 21.1%

Q: And the viability, T/C [27]?
A: 32.8%

Q: What about the viability, T/C [28] of the same molecule?
A: 35.9%

Q: What about the viability, T/C [29] of the same molecule?
A: 24.6%

Q: And the viability, T/C [30]?
A: 4.64%

Q: What about the viability, T/C [31] of the same molecule?
A: 11.3%

Q: What about the viability, T/C [32] of the same molecule?
A: 12.2%

Q: And the viability, T/C [33]?
A: 14.2%

Q: What about the viability, T/C [34] of the same molecule?
A: 15.7%

Q: What about the viability, T/C [35] of the same molecule?
A: 14.9%

Q: And the viability, T/C [36]?
A: 1.88%

Source: PubChem BioAssay AID1963976 (Molecular Pharmacology Branch, DTP, NCI, 2024)
